How the values were obtained:
Assay type in all cases: biochemical
DYRK1A = target: T1, DYRK1A (Homo sapiens, UniProt Q13627); assay: Inhibition test on activity of DYRK family, mobility shift assay (MSA), DYRK1A; details: ATP 100 μM, FITC-labeled DYRKtide peptide substrate, room temperature 1 hour; for IC50: read-out: Inhibitory Activity 1a (IC50 against DYRK1A)
T1 construct: purchased Carna Biosciences, Inc. 04-130
Method: (§1) [Inhibition Test on Activity of DYRK Family (DYRK1A, DYRK1B, DYRK2, and […])]
(§2) (Method for Measuring Kinase Activity)
(§3) The kinase activity was measured by mobility shift assay (MSA) method using QuickScout Screening Assist™ MSA (commercially available kit manufactured by Carna Biosciences, Inc.). The substrate of the kinase reaction used was an FITC-labeled DYRKtide peptide included in the kit. An assay buffer [20 mM HEPES, 0.01% Triton X-100™, 2 mM dithiothreitol, pH 7.5] was used to create a substrate mixture solution with a substrate (4 μM), MgCl2 (20 mM), and ATP (DYRK1A: 100 μM; DYRK1B: 200 μM; DYRK2: 40 μM; and DYRK3: 20 μM). In addition, kinases (DYRK1A: manufactured by Carna Biosciences, Inc., Cat. No. 04-130; DYRK1B: manufactured by Carna Biosciences, Inc., Cat. No. 04-131; DYRK2; manufactured by Carna Biosciences, Inc., Cat. No. 04-132; and DYRK3; manufactured by Carna Biosciences, Inc., Cat. No. 04-133) were diluted with the assay buffer to prepare enzyme solutions (DYRK1A: 0.2 ng/μL; DYRK1B: 0.08 ng/μL; DYRK2: 0.04 ng/μL; and DYRK3: 0.25 ng/μL). The 10 mM solution of the test compound in DMSO was further diluted with DMSO to 10 levels of the concentration (0.00003 mM, 0.0001 mM, 0.0003 mM, 0.001 mM, 0.003 mM, 0.01 mM, 0.03 mM, 0.1 mM, 0.3 mM, and 1 mM), each of which was subjected to 25-fold dilution with the assay buffer to obtain a drug solution (4% DMSO solution). 5 μL of the drug solution or a control solution (4% DMSO-assay buffer), 5 μL of the substrate mixture solution, and 10 μL of the enzyme solution were mixed in the wells of a polypropylene 384-well plate and allowed to react at room temperature for 1 hour, and then the reaction was quenched by adding 60 μL of the termination buffer included in the kit. Subsequently, the quantities of the substrates (S) and the phosphorylated substrate (P) in the reaction solution were measured using LabChip EZ Reader II system (manufactured by Caliper Life Sciences) according to the protocol of the assay kit.
(§4) (Method for Evaluating Inhibitory Activity)
(§5) The heights of the peaks of the “substrate” and the “phosphorylated substrate” were expressed as S and P, respectively, and a blank containing the assay buffer instead of the enzyme solution was also measured.
(§6) The inhibition rate (%) of the test compound was calculated according to the following equation:
(§7) Inhibition rate (%)=(1−(C−A)/(B−A))×100
(§8) wherein, A, B, and C represent P/(P+S) of the blank well, P/(P+S) of the control solution well, and P/(P+S) of the compound-containing well, respectively.
(§9) The IC50 value was calculated via a regression analysis of the inhibition rate and the test compound concentration (logarithmic value).
(§10) The inhibiting activities of representative compounds of the present invention are shown against DYRK1A, DYRK1B, DYRK2, and DYRK3 in Tables 7 and 8. The kinase activity inhibitory effect was indicated with the mark *** at an IC50 value of less than 0.01 μM; the mark ** at 0.01 μM or more and less than 0.1 μM; the mark * at 0.1 μM or more and less than 1 μM; and the mark — at 1 μM or more (N.D. indicates not measured).

DYRK2 = target: T2, DYRK2 (Homo sapiens, UniProt Q92630); assay: Inhibition test on activity of DYRK family, mobility shift assay (MSA), DYRK2; details: ATP 40 μM, FITC-labeled DYRKtide peptide substrate, room temperature 1 hour; for IC50: read-out: Inhibitory Activity 2 (IC50 against DYRK2)
T2 construct: purchased Carna Biosciences, Inc. 04-132
T2 sequence (Q92630 1-601): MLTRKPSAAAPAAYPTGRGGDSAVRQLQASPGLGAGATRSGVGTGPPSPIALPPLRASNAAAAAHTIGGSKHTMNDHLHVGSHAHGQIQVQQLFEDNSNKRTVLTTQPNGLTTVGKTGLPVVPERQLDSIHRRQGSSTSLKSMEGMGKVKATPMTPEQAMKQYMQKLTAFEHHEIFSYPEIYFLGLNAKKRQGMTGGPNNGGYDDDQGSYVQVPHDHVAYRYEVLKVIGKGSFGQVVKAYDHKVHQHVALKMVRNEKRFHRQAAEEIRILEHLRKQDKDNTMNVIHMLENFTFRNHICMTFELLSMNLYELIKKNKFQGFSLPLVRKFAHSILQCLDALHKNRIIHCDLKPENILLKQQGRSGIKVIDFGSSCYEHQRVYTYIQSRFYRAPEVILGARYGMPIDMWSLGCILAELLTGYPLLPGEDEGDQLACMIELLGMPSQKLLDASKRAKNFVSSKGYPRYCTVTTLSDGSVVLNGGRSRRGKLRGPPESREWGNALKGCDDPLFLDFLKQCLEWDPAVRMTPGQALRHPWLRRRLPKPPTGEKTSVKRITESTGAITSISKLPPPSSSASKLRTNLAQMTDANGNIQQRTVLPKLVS
Method: as §1, §2, §3, §4, §5, §6, §7, §8, §9, §10

DYRK3 = target: T3, DYRK3 (Homo sapiens, UniProt O43781); assay: Inhibition test on activity of DYRK family, mobility shift assay (MSA), DYRK3; details: ATP 20 μM, FITC-labeled DYRKtide peptide substrate, room temperature 1 hour; for IC50: read-out: Inhibitory Activity 3 (IC50 against DYRK3)
T3 construct: purchased Carna Biosciences, Inc. 04-133
T3 sequence (O43781 1-588): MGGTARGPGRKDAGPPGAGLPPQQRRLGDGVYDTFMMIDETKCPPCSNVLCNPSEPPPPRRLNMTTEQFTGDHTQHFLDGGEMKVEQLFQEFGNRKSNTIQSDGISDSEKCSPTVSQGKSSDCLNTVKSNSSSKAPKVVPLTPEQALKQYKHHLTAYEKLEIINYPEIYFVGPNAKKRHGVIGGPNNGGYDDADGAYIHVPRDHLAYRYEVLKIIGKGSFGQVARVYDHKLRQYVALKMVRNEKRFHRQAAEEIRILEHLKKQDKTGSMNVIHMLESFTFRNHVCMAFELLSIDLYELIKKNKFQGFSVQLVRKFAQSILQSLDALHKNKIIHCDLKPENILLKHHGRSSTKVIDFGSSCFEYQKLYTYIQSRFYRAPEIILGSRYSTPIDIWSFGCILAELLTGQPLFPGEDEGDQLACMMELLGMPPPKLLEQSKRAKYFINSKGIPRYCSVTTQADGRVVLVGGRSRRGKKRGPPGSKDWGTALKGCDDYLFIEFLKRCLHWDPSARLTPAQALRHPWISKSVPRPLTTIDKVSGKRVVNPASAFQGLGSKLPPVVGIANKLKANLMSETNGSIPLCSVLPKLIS
Method: as §1, §2, §3, §4, §5, §6, §7, §8, §9, §10

IC50 (DYRK1A) [µM] | IC50 (DYRK2) [µM] | IC50 (DYRK3) [µM] | Inhibitory Activity 1a (IC50 against DYRK1A) (DYRK1A) | Inhibitory Activity 3 (IC50 against DYRK3) (DYRK3) | Inhibitory Activity 2 (IC50 against DYRK2) (DYRK2) | SMILES
0.1 to 1 | ≥ 1 | ≥ 1 | – | – | – | CC#CC1CNC(=O)N1c1nc2c3c(ccc2s1)OCCN3CCN1CCCCC1 (racemic) [Example 43, (RS)-1-{9-[2-(piperidin-1-yl)ethyl]-8,9-dihydro-7H-thiazolo[4′,5′:3,4]benz[1,2-b][1,4]oxazin-2-yl}-5-(prop-1-yn-1-yl)imidazolidin-2-one]
≥ 1 | ≥ 1 | ≥ 1 | – | – | – | CC#CC1CNC(=O)N1c1nc2c3c(ccc2s1)OCCN3CCN1CCN(C)CC1 (racemic) [Example 44, (RS)-1-{9-[2-(4-methylpiperazin-1-yl)ethyl]-8,9-dihydro-7H-thiazolo[4′,5′:3,4]benz[1,2-b][1,4]oxazin-2-yl}-5-(prop-1-yn-1-yl)imidazolidin-2-one]
– | 0.1 to 1 | 0.1 to 1 | * * | – | – | CC#CC1CNC(=O)N1c1nc2c3c(ccc2s1)OCCN3C1CC1 (racemic) [Example 45, (RS)-1-(9-cyclopropyl-8,9-dihydro-7H-thiazolo[4′,5′:3,4]benz[1,2-b][1,4]oxazin-2-yl)-5-(prop-1-yn-1-yl)imidazolidin-2-one]
– | ≥ 1 | 0.1 to 1 | * * | – | – | CC#CC1CNC(=O)N1c1nc2c3c(ccc2s1)OCC(=O)N3C (racemic) [Example 46, (RS)-9-methyl-2-[2-oxo-5-(prop-1-yn-1-yl)imidazolidin-1-yl]-7H-thiazolo[4′,5′:3,4]benz[1,2-b][1,4]oxazin-8(9H)-one]
– | ≥ 1 | 0.1 to 1 | * * | – | – | CC#CC1CNC(=O)N1c1nc2c3c(ccc2s1)OCCN3S(C)(=O)=O (racemic) [Example 47, (RS)-1-[9-(methylsulfonyl)-8,9-dihydro-7H-thiazolo[4′,5′:3,4]benz[1,2-b][1,4]oxazin-2-yl]-5-(prop-1-yn-1-yl)imidazolidin-2-one]
– | 0.1 to 1 | 0.1 to 1 | * * * | – | – | CC#CC1CNC(=O)N1c1nc2c(ccc3nn(C)cc32)s1 (racemic) [Example 51, (RS)-1-(7-methyl-7H-thiazolo[4,5-e]indazol-2-yl)-5-(prop-1-yn-1-yl)imidazolidin-2-one]
– | 0.1 to 1 | 0.1 to 1 | * * * | – | – | CC#CC1CNC(=O)N1c1nc2c3c(ccc2s1)OCCO3 (racemic) [Example 55, (RS)-1-(7,8-dihydro-[1,4]dioxyno[2′,3′:5,6]benzo[1,2-d]thiazol-2-yl)-5-(prop-1-yn-1-yl)imidazolidin-2-one]
– | – | – | * * * | * * | * * | CC#CC1CNC(=O)N1c1nc2c3c(ccc2s1)OCC3 (single isomer, unassigned) [Example 9, 1-(7,8-dihydrobenzofuro[4,5-d]thiazol-2-yl)-5-(prop-1-yn-1-yl)imidazolidin-2-one]

Continued, compound first:

SMILES | IC50 (DYRK1A) [µM] | IC50 (DYRK2) [µM] | IC50 (DYRK3) [µM] | Inhibitory Activity 1a (IC50 against DYRK1A) (DYRK1A) | Inhibitory Activity 3 (IC50 against DYRK3) (DYRK3) | Inhibitory Activity 2 (IC50 against DYRK2) (DYRK2)
CC#CC1CNC(=O)N1c1nc2c(ccc3[nH]ncc32)s1 (racemic) [Example 50, (RS)-5-(prop-1-yn-1-yl)-1-(6H-thiazolo[4,5-e]indazol-2-yl)imidazolidin-2-one] | – | ≥ 1 | ≥ 1 | * * | – | –
CC#CC1N(c2nc3c4c(ccc3s2)OCC4)C(=O)NC1(C)C (racemic) [Example 54, (RS)-1-(7,8-dihydrobenzofuro[4,5-d]thiazol-2-yl)-4,4-dimethyl-5-(prop-1-yn-1-yl)imidazolidin-2-one] | – | ≥ 1 | ≥ 1 | * * | – | –
CC#C[C@@H]1[C@H](CO)NC(=O)N1c1nc2c3c(ccc2s1)OCC3 (relative stereo) [Example 60, cis-1-(7,8-dihydrobenzofuro[4,5-d]thiazol-2-yl)-4-(hydroxymethyl)-5-(prop-1-yn-1-yl)imidazolidin-2-one] | – | 0.1 to 1 | – | * * * | * * | –
CC#C[C@H]1[C@H](CO)NC(=O)N1c1nc2c3c(ccc2s1)OCC3 (relative stereo) [Example 61, trans-1-(7,8-dihydrobenzofuro[4,5-d]thiazol-2-yl)-4-(hydroxymethyl)-5-(prop-1-yn-1-yl)imidazolidin-2-one] | – | 0.1 to 1 | 0.1 to 1 | * * * | – | –
CC#C[C@@H]1[C@H](CO)NC(=O)N1c1nc2c3c(ccc2s1)OCCO3 (relative stereo) [Example 64, cis-1-(7,8-dihydro-[1,4]dioxino[2′,3′:5,6]benz[1,2-d]thiazol-2-yl)-4-(hydroxymethyl)-5-(prop-1-yn-1-yl)imidazolidin-2-one] | – | 0.1 to 1 | 0.1 to 1 | * * * | – | –
CC#C[C@@H]1[C@H](CC)NC(=O)N1c1nc2c3c(ccc2s1)OCC3 (relative stereo) [Example 73, cis-1-(7,8-dihydrobenzofuro[4,5-d]thiazol-2-yl)-4-ethyl-5-(prop-1-yn-1-yl)imidazolidin-2-one] | – | 0.1 to 1 | 0.1 to 1 | * * * | – | –
CC#C[C@@H]1[C@H](CF)NC(=O)N1c1nc2c3c(ccc2s1)OCC3 (relative stereo) [Example 80, cis-1-(7,8-dihydrobenzofuro[4,5-d]thiazol-2-yl)-4-(fluoromethyl)-5-(prop-1-yn-1-yl)imidazolidin-2-one] | < 0.01 | ≥ 1 | 0.1 to 1 | – | – | –
